Results published in patent US20090030033A1, “Novel Compounds 894” (AstraZeneca AB, priority 2007, published 2009).
Structures can show the parent of a compound that is named as a salt.

The compounds below were run against T1, human GlyT1b (Homo sapiens, UniProt P48067) (assay: [3H]Glycine Uptake Assay (SPA) in hGlyT1b/CHO cells). Settings: compounds of Formula Ia, read at 2 h.
T1 construct: expressed in transfected cells
T1 sequence (P48067 1-652 isoform P48067-3): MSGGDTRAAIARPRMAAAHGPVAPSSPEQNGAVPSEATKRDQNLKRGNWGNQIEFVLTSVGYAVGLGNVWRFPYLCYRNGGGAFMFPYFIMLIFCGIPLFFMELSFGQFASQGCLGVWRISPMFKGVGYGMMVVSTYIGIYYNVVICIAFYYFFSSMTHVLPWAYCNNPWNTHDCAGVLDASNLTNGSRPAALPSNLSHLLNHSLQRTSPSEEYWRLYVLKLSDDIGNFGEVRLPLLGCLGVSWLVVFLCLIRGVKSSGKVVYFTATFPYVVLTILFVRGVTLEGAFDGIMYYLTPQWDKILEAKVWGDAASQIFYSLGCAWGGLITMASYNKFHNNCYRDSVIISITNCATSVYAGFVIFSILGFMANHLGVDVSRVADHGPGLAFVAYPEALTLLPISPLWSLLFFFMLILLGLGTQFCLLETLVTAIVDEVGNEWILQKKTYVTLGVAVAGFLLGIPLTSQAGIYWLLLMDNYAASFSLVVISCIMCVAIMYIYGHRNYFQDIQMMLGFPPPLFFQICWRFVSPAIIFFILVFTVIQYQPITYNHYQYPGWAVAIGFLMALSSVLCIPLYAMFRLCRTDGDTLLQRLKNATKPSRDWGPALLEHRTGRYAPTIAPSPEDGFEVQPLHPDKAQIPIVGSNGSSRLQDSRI
Type: cell-based
Method: The activity and usefulness of the compounds can be assessed in assays known to those skilled in the art. […] The potency was measured in the [3H]Glycine Uptake Assay substantially as described below.
[^3H]Glycine Uptake Assay
[^3H]Glycine: PerkinElmer (NET-004, [2-^3H]Glycine, 53.3 Ci/mmol, 1 mCi/mL)
Preparation of recombinant human GlyT1-CHO cells (hGlyT1-CHO). […] CHO-K1 cells (ATCC) were transfected with the recombinant vector containing GlyT1b using Lipofectamine 2000 (Invitrogen) and cultured in Ham's/F12 media supplemented with 10% fetal bovine serum, 2 mM L-glutamine at 37° C., 5% CO2, 90% humidity. Twenty-four hours after transfection, cells were diluted and switched to media containing 500 μg/ml hygromycin B. Antibiotic resistant cells were obtained after 21 days of culture in the presence of hygromycin B. Clonal stable cell lines were isolated by FACS single cell deposition into 96-well plates.
Cell culture: Recombinant hGlyT1-CHO cells were cultured in cell culture medium (Ham's/F12, containing 10% FBS, 2 mM L-glutamine and 500 μg/ml hygromycin B in 175 cm^2 flasks until near confluence prior to use in assay.
Cell suspension: Cell medium in a cell culture flask containing near confluent cells was removed and 5 ml of cell stripper was added to submerge all cells on the surface of the culture flask. Cell stripper was removed immediately and the flask incubated in a 37° C. incubator for ˜5 min. Cells were shaken loose and suspended in 5 ml of PBS. After splitting cells to initiate a new flask(s), the cells remaining were collected by centrifugation, counted, and resuspended in assay buffer to a density of ˜2 million/mL. The cell suspension was kept at room temperature before use.
SPA and isotope mixture: WGA PTV beads were suspended in assay buffer (2 mg/ml) containing 60 nM [^3H]Glycine and 20 μM unlabeled glycine and the suspension was kept at room temperature before assay.
Assay of glycine uptake: To the wells of an OptiPlate, 2 μl DMSO containing a test compound was spotted. This was followed by addition of 98 μl of cell suspension (˜1 million/ml final). After incubating cells with compound for ˜15 min, 100 μl of the SPA (200 μg/well final) and isotope mixture (30 nM isotope with 10 μM cold glycine, final) was added to initiate the glycine uptake. At 2 h, the plate was read on a TopCount to quantify SPA counts.

SMILES | IC50 [nM]
O=C(NC(c1ccccc1)C12CCC(CC1)CN2)c1cccc(Cl)c1Cl (single isomer, unassigned) [N-(2-azabicyclo[2.2.2]octan-1-yl(phenyl)methyl)-2,3-dichlorobenzamide] | 99.7
Cc1c(C(=O)NC(c2ccccc2)C23CCC(CC2)CN3)cccc1C(F)(F)F (single isomer, unassigned) [N-(2-azabicyclo[2.2.2]octan-1-yl(phenyl)methyl)-2-methyl-3-(trifluoromethyl)benzamide] | 67.6
O=C(NC(c1ccccc1)C12CCC(CC1)CN2)c1cccc(C(F)(F)F)c1Cl (single isomer, unassigned) [drawing 102, N-(2-azabicyclo[2.2.2]octan-1-yl(phenyl)methyl)-2-chloro-3-(trifluoromethyl)benzamide] | 455
O=C(NC(c1ccccc1)C12CCC(CC1)CN2)c1cccc(C(F)(F)F)c1Cl (single isomer, unassigned) [drawing 103, N-(2-azabicyclo[2.2.2]octan-1-yl(phenyl)methyl)-2-chloro-3-(trifluoromethyl)benzamide] | 198
O=C(NC(c1ccccc1)C12CCC(CC1)CN2)c1cccc(C(F)(F)F)c1Cl (stereo not shown) [N-(2-azabicyclo[2.2.2]octan-1-yl(phenyl)methyl)-2-chloro-3-(trifluoromethyl)benzamide] | 258

Same assay, conditions: compounds of Formula Ib, read at 2 h

SMILES | IC50 [nM]
CN1CC2CCC1(C(NC(=O)c1ccc(Cl)cc1Cl)c1ccccc1)CC2 (stereo not shown) [2,4-dichloro-N-((2-methyl-2-azabicyclo[2.2.2]octan-1-yl)(phenyl)methyl)benzamide] | 6.45
CN1CC2CCC1(C(NC(=O)c1cccc(F)c1Br)c1ccccc1)CC2 (stereo not shown) [2-bromo-3-fluoro-N-((2-methyl-2-azabicyclo[2.2.2]octan-1-yl)(phenyl)methyl)benzamide] | 25.8
CN1CC2CCC1(C(NC(=O)c1c(Cl)cccc1Br)c1ccccc1)CC2 (stereo not shown) [2-bromo-6-chloro-N-((2-methyl-2-azabicyclo[2.2.2]octan-1-yl)(phenyl)methyl)benzamide] | 12.1
Cc1cccc(Br)c1C(=O)NC(c1ccccc1)C12CCC(CC1)CN2C (stereo not shown) [2-bromo-6-methyl-N-((2-methyl-2-azabicyclo[2.2.2]octan-1-yl)(phenyl)methyl)benzamide] | 1.34
CN1CC2CCC1(C(NC(=O)c1ccccc1Br)c1ccccc1)CC2 (stereo not shown) [2-bromo-N-((2-methyl-2-azabicyclo[2.2.2]octan-1-yl)(phenyl)methyl)benzamide] | 10.5
CN1CC2CCC1(C(NC(=O)c1cccc(F)c1Cl)c1ccccc1)CC2 (stereo not shown) [2-chloro-3-fluoro-N-((2-methyl-2-azabicyclo[2.2.2]octan-1-yl)(phenyl)methyl)benzamide] | 12
COc1ccc(Cl)c(C(=O)NC(c2ccccc2)C23CCC(CC2)CN3C)c1 (stereo not shown) [2-chloro-5-methoxy-N-((2-methyl-2-azabicyclo[2.2.2]octan-1-yl)(phenyl)methyl)benzamide] | 32.7
COc1cccc(Cl)c1C(=O)NC(c1ccccc1)C12CCC(CC1)CN2C (stereo not shown) [2-chloro-6-methoxy-N-((2-methyl-2-azabicyclo[2.2.2]octan-1-yl)(phenyl)methyl)benzamide] | 3.15
Cc1cccc(Cl)c1C(=O)NC(c1ccccc1)C12CCC(CC1)CN2C (stereo not shown) [2-chloro-6-methyl-N-((2-methyl-2-azabicyclo[2.2.2]octan-1-yl)(phenyl)methyl)benzamide] | 2.3
CN1CC2CCC1(C(NC(=O)c1ccccc1Cl)c1ccccc1)CC2 (stereo not shown) [2-chloro-N-((2-methyl-2-azabicyclo[2.2.2]octan-1-yl)(phenyl)methyl)benzamide] | 65.1
CN1CC2CCC1(C(NC(=O)c1cccc(C(F)(F)F)c1F)c1ccccc1)CC2 (stereo not shown) [2-fluoro-N-((2-methyl-2-azabicyclo[2.2.2]octan-1-yl)(phenyl)methyl)-3-(trifluoromethyl)benzamide] | 92
CN1CC2CCC1(C(NC(=O)c1c(F)cccc1C(F)(F)F)c1ccccc1)CC2 (stereo not shown) [2-fluoro-N-((2-methyl-2-azabicyclo[2.2.2]octan-1-yl)(phenyl)methyl)-6-(trifluoromethyl)benzamide] | 65
Cc1c(C(=O)NC(c2ccccc2)C23CCC(CC2)CN3C)cccc1C(F)(F)F (stereo not shown) [2-methyl-N-((2-methyl-2-azabicyclo[2.2.2]octan-1-yl)(phenyl)methyl)-3-(trifluoromethyl)benzamide] | < 2.34
Cc1ccccc1C(=O)NC(c1ccccc1)C12CCC(CC1)CN2C (stereo not shown) [2-methyl-N-((2-methyl-2-azabicyclo[2.2.2]octan-1-yl)(phenyl)methyl)benzamide] | 3.48
Cc1c(F)cccc1C(=O)NC(c1ccccc1)C12CCC(CC1)CN2C (stereo not shown) [3-fluoro-2-methyl-N-((2-methyl-2-azabicyclo[2.2.2]octan-1-yl)(phenyl)methyl)benzamide] | 2.6
CN1CC2CCC1([C@H](NC(=O)c1ccc(Cl)cc1Cl)c1ccccc1)CC2 [(R)-2,4-dichloro-N-((2-methyl-2-azabicyclo[2.2.2]octan-1-yl)(phenyl)methyl)benzamide,citric acid salt] | 11.1
CN1CC2CCC1([C@H](NC(=O)c1cccc(F)c1Cl)c1ccccc1)CC2 [(R)-2-chloro-3-fluoro-N-((2-methyl-2-azabicyclo[2.2.2]octan-1-yl)(phenyl)methyl)benzamide,citric acid salt] | 5.9
COc1cccc(Cl)c1C(=O)N[C@H](c1ccccc1)C12CCC(CC1)CN2C [(R)-2-chloro-6-methoxy-N-((2-methyl-2-azabicyclo[2.2.2]octan-1-yl)(phenyl)methyl)benzamide,citric acid salt] | 4.74
CCOc1ccccc1C(=O)N[C@H](c1ccccc1)C12CCC(CC1)CN2C [(R)-2-ethoxy-N-((2-methyl-2-azabicyclo[2.2.2]octan-1-yl)(phenyl)methyl)benzamide,citric acid salt] | 336
CCc1ccccc1C(=O)N[C@H](c1ccccc1)C12CCC(CC1)CN2C [(R)-2-ethyl-N-((2-methyl-2-azabicyclo[2.2.2]octan-1-yl)(phenyl)methyl)benzamide,citric acid salt] | 0.965
CN1CC2CCC1([C@H](NC(=O)c1ccccc1C(F)(F)F)c1ccccc1)CC2 [(R)-N-((2-methyl-2-azabicyclo[2.2.2]octan-1-yl)(phenyl)methyl)-2-(trifluoromethyl)benzamide,citric acid salt] | 49.6
CN1CC2CCC1(C(NC(=O)c1cc(C(F)(F)F)ccc1C(F)(F)F)c1ccccc1)CC2 (stereo not shown) [N-((2-methyl-2-azabicyclo[2.2.2]octan-1-yl)(phenyl)methyl)-2,5-bis(trifluoromethyl)benzamide] | 86.2
CSc1ccccc1C(=O)NC(c1ccccc1)C12CCC(CC1)CN2C (stereo not shown) [N-((2-methyl-2-azabicyclo[2.2.2]octan-1-yl)(phenyl)methyl)-2-(methylthio)benzamide] | 2.95
CN1CC2CCC1(C(NC(=O)c1ccccc1OC(F)(F)F)c1ccccc1)CC2 (stereo not shown) [N-((2-methyl-2-azabicyclo[2.2.2]octan-1-yl)(phenyl)methyl)-2-(trifluoromethoxy)benzamide] | 13.6
CN1CC2CCC1(C(NC(=O)c1ccc(F)cc1Cl)c1ccccc1)CC2 (stereo not shown) [drawing 37, 2-chloro-4-fluoro-N-((2-methyl-2-azabicyclo[2.2.2]octan-1-yl)(phenyl)methyl)benzamide] | 8.45
CN1CC2CCC1(C(NC(=O)c1ccc(F)cc1Cl)c1ccccc1)CC2 [drawing 58, (R)-2-chloro-4-fluoro-N-((2-methyl-2-azabicyclo[2.2.2]octan-1-yl)(phenyl)methyl)benzamide,citric acid salt] | 7.71
